Experimental data published in a melting point compilation (Tetko et al.; mined from patent text by program, amines drawn as free bases though some values may be those of a salt).

melting point | SMILES
135 to 137 °C | C[C@H](C(O)C(c1ccc(F)cc1F)n1cncn1)S(=O)(=O)[C@@H]1CNCCN1c1ccccc1 (stereo not given in full)
197 to 199 °C | N#CC1=C(C#N)Sc2nc3cc(C(F)(F)F)ccc3nc2S1
267 to 271 °C | Fc1ccccc1-c1nc2ncncc2[nH]1
138 °C | C=CCCC(O)=C(C#N)C(=O)Nc1ccc(Cl)cc1
104 °C | COc1ccc(C(=NN)Nc2ccc([N+](=O)[O-])cc2)cc1
76 °C | CCC(=NOCCO)c1ccc(-c2ccccc2)cc1
102 to 104 °C | CCCC(=O)c1c[nH]c2c(OC)cc(OC(=O)c3ccccc3)cc2c1=O
78 to 80 °C | COC(=O)C1Oc2ccc3c(-c4ccccc4)noc3c2O1 (stereo not given)
104 to 105 °C | N#CCCCCc1csc(NC(=N)N)n1
97 °C | O=C(O)[C@@H]1CCCN1C(=O)C1CCCC1S (stereo not given in full)
158 to 160 °C | O=C1COC(c2cccc(Cl)c2)c2ncccc21 (stereo not given)
45 to 46 °C | CC#CCOc1ccc(S(=O)(=O)NC(COCCBr)C(=O)OC)cc1 (stereo not given)
186 to 191 °C | CS(=O)(=O)c1ccc(C[C@@H](NC(=O)OCc2ccccc2)[C@H](O)C(N)=O)cc1
192 to 194 °C | CN(C)CCCN1C(=O)c2cc(Cl)c(S(N)(=O)=O)cc2C1=O
218 to 220 °C | CC(=O)Nc1cnn2c1-c1ccccc1N(C(C)=O)C2C (stereo not given)
287 °C | COc1cc(C(=O)c2c(C)c(OC)c3ccc(C(=O)O)cn23)ccc1[N+](=O)[O-]
165 to 167 °C | O=C(NO)C(=O)Nc1ccccc1
101 °C | COc1ccc(OCCCC2CCN(c3ccc(Cl)nn3)CC2)c(Cl)c1
178 to 180 °C | Cn1nc(-c2c(F)cccc2Cl)nc1-c1sc(Br)c(Cl)c1Cl
141 to 144 °C | CC(C)(S)CNC(=O)c1nccnc1C(=O)O
164 to 166 °C | CC1=C(C(=O)OCC=Cc2ccccc2)C(c2ccccc2C(F)(F)F)c2c(ccnc2OC(C)C)N1 (stereo not given)
186 to 187 °C | CCCCc1cc2ccccc2c(Oc2ccc(/C=C/C(=O)O)cc2)c1-c1ccc(OC)cc1
172 to 173 °C | CC(C)C1NC(=O)CN1C(=O)C(Cl)Cl (stereo not given)
227 to 228 °C | Cc1cc2c(cc1C1=NNC(=O)CC1)N(C)C(=O)CO2
108 to 110 °C | Nc1ncccc1OCc1c(F)ccc(F)c1F
116 to 118 °C | CCCOc1ccc(NC=C(C(=O)OCC)C(=O)OCC)nc1C

melting point | SMILES
196 to 197 °C | O=C1CCNc2nc(Br)ccc21
60 °C | Cc1ccc(I)cc1O
173 to 174 °C | CS(=O)(=O)c1ccc(-c2cc3c(cc2-c2ccc(F)cc2)OCO3)cc1
136 to 138 °C | CCCN(CCC)c1nsc(N)c1C#N
199 to 201 °C | O=C(Nc1ccc(C(=O)N2Cc3ccccc3Cc3cc(Cl)ccc32)cc1)c1ccc(Cl)cc1Cl
194 to 197 °C | O=C(CCn1ccnc1)c1c[nH]c2ccccc12
137 to 140 °C | Cc1ccc(N(C(=O)CCl)c2c(F)cc(F)cc2Cl)cc1
75 to 77 °C | O=C(O)CCCCCCc1ccccc1CO
92 to 93 °C | CCCCC1=CC(O)(C(Br)Br)N(Cc2ccccc2)C1=O (stereo not given)
95 to 105 °C | Cc1noc(NS(=O)(=O)c2ccccc2-c2ccc(-c3ncco3)cc2COc2ccc(-c3ccccc3)cc2)c1C
> 250 °C | N#CC1=C(CN2C(=O)c3ccccc3C2=O)Nc2n[nH]cc2C1c1ccccc1Cl (stereo not given)
283 to 285 °C | O=C1NC(=O)C(c2c[nH]c3ccccc23)C1C(=O)c1cn2c3c(cccc13)CCC2 (stereo not given)
157 to 158 °C | Cc1nc(N2CCN(CC3CC3)C2=O)sc1C(=O)NCc1cccnc1
126 to 128 °C | O=Cc1ccc2cc[nH]c2c1
150 to 153 °C | N=C(N)Nc1ncc(CSCCN)s1
168 to 169 °C | Nc1ccnc2cc(Br)cnc12
197 to 199 °C | CCc1nc2c(N)nc3cc(CCC(N)=O)ccc3c2n1CC1CCOCC1
216 °C | COC(=O)c1cc(C(=O)c2c(C)c(OC)c3ccc(O)cn23)ccc1N
121 to 125 °C | CC(=O)N1CCc2ccc(Cl)c(S(=O)(=O)Cl)c2C1
103 to 105 °C | COc1ccc(C(=O)c2ccc(SCc3ccccc3)s2)cc1
129 to 132 °C | CSC(=C(C#N)C#N)N1CCc2ccccc2CC1
234 to 236 °C | CC(C)Oc1ccc2nc3ccc(C#N)cn3c(=O)c2c1
218 to 220 °C | O=c1cc(C(F)(F)F)c2ccc(N3CCOCC3)nc2o1
134 °C | Cc1cc(NC(=O)C(C)(C)Sc2ccc(Cl)cc2)c(C)c(C)c1O
244 to 246 °C | N#CC(C#N)=C1c2ccsc2-c2c1cc([N+](=O)[O-])cc2[N+](=O)[O-]
94 to 97 °C | CCN1c2ncc(CCc3ccncc3)cc2C(=O)N(C)c2ccc(N)nc21

melting point | SMILES
136 to 137 °C | COC(=O)Cc1cc2c(c([N+](=O)[O-])c1)N(C(C)=O)CC2
210 to 212 °C | Cn1nc2c(N)nc3ccccc3c2c1CCc1ccccc1
221 to 222 °C | N#CC(=NNC(=N)N)c1cccc(Cl)c1Cl
174 to 176 °C | Nc1nnc(Cc2cccc(C(F)(F)F)c2)s1
152 to 160 °C | CCCCOC(=O)C(OC(=O)C(C)C)OC(=O)N1CCN(c2cc3c(cc2F)c(=O)c(C(=O)O)cn3CC)CC1 (stereo not given)
92 to 93 °C | CCOC(=O)COc1cc2ccsc2c(Cl)c1Cl
50 to 52 °C | CCCCCCNC(=O)NOCC(O)CN1CCCCC1 (stereo not given)
145 to 147 °C | CCOC(=S)CC/C(C)=C/Cc1c(OC)c(C)c2c(c1OC(N)=O)C(=O)OC2
170 to 171 °C | C=CCc1cc(OC)c(OC)cc1Cc1cnc(N)nc1N
302 to 307 °C | COc1cc2ncc(C#N)c(Nc3ccc(Sc4nccn4C)c(Cl)c3)c2cc1OC
230 to 235 °C | CCCCC(=O)Nc1ccc(C2=N[C@H]3CCN(C)C[C@H]3c3cc(OC)c(OC)cc32)cc1 (relative stereo)
67 to 69 °C | CC(=O)NC(C)Cc1cc(C)c(C)cc1CC(=O)O (stereo not given)
210 to 211 °C | O=C(O)CNC(=O)c1nc(Cl)c2ccc(OCc3ccccc3)cc2c1O
162 to 166 °C | Clc1cc(Cl)cc(-c2nc(-c3ccccn3)no2)c1
106 to 108 °C | CN(C)C(=O)N1CC(Oc2ccc(C(F)(F)F)cc2Cl)C1
266 to 268 °C | O=S1(=O)c2ccccc2-c2[nH]nc(-c3ccccc3)c21
71 to 73 °C | C=Cc1ccc(CN2CCN(Cc3ccc(C=C)cc3)CCN(Cc3ccc(C=C)cc3)CC2)cc1
72 to 75 °C | C=CC(=N)NS(N)(=O)=O
119 to 122 °C | C=Cc1ccc(-c2ccc(OC(C)=O)cc2)cc1
165 to 167 °C | O=C(NCc1ccc(F)cc1)c1cn(N2CCOCC2)c2ccc(CN3CCOCC3)cc2c1=O
88 to 90 °C | CCCCCCCCCCCCCCCCNc1cc(O)ccc1OCC
78 to 79 °C | COC(=O)C1CCCn2c(C(=O)c3ccc(F)cc3)ccc21 (stereo not given)
58 to 60 °C | FC(F)(F)c1cc(Cl)c(-n2ncc(CS)n2)c(Cl)c1
162 to 164 °C | Cc1ccc(-c2c(C)c3cc(O)ccc3n2Cc2ccc(OCCN3CCCCC3)cc2)cc1
242 to 243 °C | Cc1nnc(-c2ccc3occ(C(=O)NCCC(N)=O)c3c2)o1
177 to 179 °C | CC(C)(C)c1cc(CCc2ccccc2NC(=O)NCCc2ccc(F)cc2)cc(C(C)(C)C)c1O

melting point | SMILES
115 to 117 °C | COc1cc(F)cc(-c2nn(Cc3oc4ccccc4c(=O)c3-c3cccc(F)c3)c3ncnc(N)c23)c1
99 to 111 °C | CCNC(=O)c1ccccc1Nc1nc(Nc2cc3c(cc2OC)CCN(CC(=O)N(C)C)CC3)ncc1Cl
229 to 232 °C | NNc1ncc(-c2cccc(C(F)(F)F)c2)nn1
116 to 117 °C | Cn1nc(C#N)c(Nc2ccc(C(F)(F)F)cc2[N+](=O)[O-])n1
> 300 °C | Cc1cc(Cn2c(O)nc3c(N)nc(C)c(C)c32)on1
144 to 146 °C | CCCCCCS(=O)(=O)c1nn2c(=O)cc(C#N)nc2s1
182 to 183 °C | COc1cc(Nc2nccc(-c3ccc([N+](=O)[O-])s3)n2)cc(OC)c1OC
113 to 114 °C | O=C(O)C1(c2ccco2)CC1
172 °C | COCCOc1cc(NC(=O)OC(C)(C)C)c(NC(=O)CC(=O)c2cccc(I)c2)cc1C#Cc1ccccc1
90 to 91 °C | CSC(=S)N1CCN(Cc2ccccc2N(C)C)CC1
175 °C | Cc1cc(Cl)nc(Nc2ccccc2[N+](=O)[O-])n1
146 to 149 °C | O=C(NC(CCl)c1ccc(-c2ccc(S(=O)(=O)C(F)F)cc2)cc1)c1c(F)cccc1F (stereo not given)
65 to 67 °C | CC(C)c1cc(-c2ccc(F)cc2)c(OCc2ccccc2)c(C(C)C)c1
93 to 96 °C | CC(C)NC(=O)N1C2=NC(C)(C)N(C)C(=O)N2c2ccccc21
109 to 111 °C | COc1ccc(NC(C)=O)cc1OCCCN1CCC(c2nsc3cc(F)ccc23)CC1
112 °C | CCCCc1nc(SC)c(C(=O)OCC)n1Cc1cccc(-c2cccc(S(=O)(=O)NC#N)c2)c1
208 to 209 °C | NC(=S)c1ccc2c(c1)Nc1ccccc1S2
173 to 175 °C | Cc1ccccc1C(CCC(=O)O)Oc1cc(OCc2ccsc2)ccc1C(=O)C(=O)O (racemic)
88 to 90 °C | C=C(c1ccccc1OC)c1ccccc1OC
110 to 120 °C | CN1Cc2[nH]c3ccccc3c2C1
172 to 173 °C | CCOc1nn2c(-c3ccccc3)nnc2c2ccccc12
203 to 206 °C | COC(=O)c1cccc(C2C(C#N)=C(N)Oc3c2ccc2ncccc32)c1 (stereo not given)
110 to 112 °C | CN(CCOc1ccc(C(N)=O)cc1)CCc1ccc(N)cc1

SMILES | melting point
N#Cc1ccc(N2CCC(=O)CC2)c2ccccc12 | 143 to 144 °C
NC(=NO)c1ncn2c1[C@@H]1CCCN1C(=O)c1c(Br)cccc1-2 | 235 to 237 °C
OCc1ccc(-c2ccc(-c3cn([C@H]4CN5CCC4CC5)nn3)cc2)s1 | 234 °C
COC(=O)c1cc(I)cn1CCF | 49 to 50.5 °C
